Test results from ChEMBL document CHEMBL1649287, “Postantibiotic effect of ceftaroline against gram-positive organisms” (2009).
Values after ≈ are worked out from the molar mass of the structure shown.

Experiments:
Type in all cases: functional
Enterococcus faecalis [1] = assay: Antimicrobial activity against vancomycin-resistant Enterococcus faecalis 266 assessed as time required to induce sub-MIC effect at 0.2 times MIC after 1 hr by plate counting method; conditions: Enterococcus faecalis, 266, 1 h
Staphylococcus aureus [2] = assay: Antimicrobial activity against methicillin-resistant, vancomycin-intermediate Staphylococcus aureus 510 assessed as time required to induce sub-MIC effect at 0.3 times MIC after 1 hr by plate counting method; conditions: Staphylococcus aureus, 510, 1 h
Enterococcus faecalis [3] = assay: Antimicrobial activity against vancomycin-resistant Enterococcus faecalis 266 assessed as time required to induce sub-MIC effect at 0.3 times MIC after 1 hr by plate counting method; conditions: Enterococcus faecalis, 266, 1 h
Staphylococcus aureus [4] = assay: Antimicrobial activity against methicillin-resistant, vancomycin-resistant Staphylococcus aureus 770 assessed as time required to induce post antibiotic sub-MIC effect at 0.3 times MIC after 1 hr by plate counting method; conditions: Staphylococcus aureus, 770, 1 h
Enterococcus faecalis [5] = assay: Antimicrobial activity against vancomycin-resistant Enterococcus faecalis 266 assessed as time required to induce post antibiotic sub-MIC effect at 0.3 times MIC after 1 hr by plate counting method; conditions: Enterococcus faecalis, 266, 1 h
Streptococcus pneumoniae [6] = assay: Antimicrobial activity against Penicillin-susceptible Streptococcus pneumoniae ATCC 49617 assessed as time required to induce sub-MIC effect at 0.4 times MIC after 1 hr by plate counting method; conditions: ATCC 49617, 1 h
Streptococcus pneumoniae [7] = assay: Antimicrobial activity against Penicillin-, erythromycin-resistant Streptococcus pneumoniae 37 assessed as time required to induce sub-MIC effect at 0.4 times MIC after 1 hr by plate counting method; conditions: Streptococcus pneumoniae, 37, 1 h
Staphylococcus aureus [8] = assay: Antimicrobial activity against methicillin-resistant, vancomycin-intermediate Staphylococcus aureus 510 assessed as time required to induce post antibiotic sub-MIC effect at 0.4 times MIC after 1 hr by plate counting method; conditions: Staphylococcus aureus, 510, 1 h
Streptococcus pneumoniae [9] = assay: Antimicrobial activity against Penicillin-susceptible Streptococcus pneumoniae ATCC 49617 by microdilution method
Staphylococcus aureus [10] = assay: Antimicrobial activity against methicillin-resistant, vancomycin-intermediate Staphylococcus aureus 510 by microdilution method
Staphylococcus aureus [11] = assay: Antimicrobial activity against methicillin-susceptible, vancomycin-susceptible Staphylococcus aureus sox1 assessed as post antibiotic effect at 10 times MIC after 1 hr by plate counting method; conditions: sox1, 1 h
Staphylococcus aureus [12] = assay: Antimicrobial activity against methicillin-resistant, vancomycin-intermediate Staphylococcus aureus 510 assessed as post antibiotic effect at 10 times MIC after 1 hr by plate counting method; conditions: Staphylococcus aureus, 510, 1 h
Enterococcus faecalis [13] = assay: Antimicrobial activity against vancomycin-resistant Enterococcus faecalis 609 assessed as post antibiotic effect at 10 times MIC after 1 hr by plate counting method; conditions: Enterococcus faecalis, 609, 1 h

With `CCO/N=C(\C(=O)N[C@@H]1C(=O)N2C(C(=O)[O-])=C(Sc3nc(-c4cc[n+](C)cc4)cs3)CS[C@H]12)c1nsc(NP(=O)(O)O)n1` [CEFTAROLINE FOSAMIL] the time (Enterococcus faecalis [1]) was 1.4 h, the time (Staphylococcus aureus [2]) was 0.7 h and the time (Enterococcus faecalis [3]) was 1.8 h. It also gave a time (Staphylococcus aureus [4]) of 5 h, a time (Enterococcus faecalis [5]) of over 10.3 h and a PAE (Streptococcus pneumoniae [6]) of 0.8 h. The time (Streptococcus pneumoniae [7]) was 0.5 h, the time (Staphylococcus aureus [8]) was over 10 h and the MIC (Streptococcus pneumoniae [9]) was 0.016 µg/mL (≈ 0.0234 µM). It also gave an MIC (Staphylococcus aureus [10]) of 0.5 µg/mL (≈ 0.73 µM), a PAE (Staphylococcus aureus [11]) of 0.8 h and a PAE (Staphylococcus aureus [12]) of 1.4 h. The PAE (Enterococcus faecalis [13]) was 0.2 h.
